Test results taken from patent publication US9113629B2, “4-amino-6-(4-substituted-phenyl)-picolinates and 6-amino-2-(4-substituted-phenyl)-pyrimidine-4-carboxylates and their use as herbicides” (DOW AGROSCIENCES LLC, priority 2013, dated 2015).
Read-outs that look alike come from different tables or passages of the source.

Assays:
[1] = system: Key Broadleaf Weed and Crop Species; assay: Post-emergent Test II herbicidal activity (Table 5); type: in vivo; details: post-emergence, 336 h, post-emergent, 14 days after application; for pest or weed control at 70 g/ha: 70 g ai/ha; for pest or weed control at 140 g/ha: 140 g ai/ha
How it was run: (§1)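 Post-emergence foliar spray, 187 L/ha, track sprayer at 43 cm above canopy. Carrier: acetone/water/IPA/DMSO/Atplus 411F/Triton X-155. Plants at 1st–2nd true leaf; subirrigated afterwards; % injury scored visually at 14 d.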

[2] = system: Key Grass and Sedge Weeds as well as Grass Crops; assay: Post-emergent Test II herbicidal activity (Table 6); type: in vivo; details: post-emergence, 336 h; for pest or weed control at 70 g/ha: application rate 70 g ai/ha; for pest or weed control at 140 g/ha: application rate 140 g ai/ha
How it was run: as §1

[3] = ABUTH: velvetleaf (Abutilon theophrasti), read-out: Visual Growth Reduction (%) 14 Days After Application ABUTH
[4] = AMARE: redroot pigweed (Amaranthus retroflexus), read-out: Visual Growth Reduction (%) 14 Days After Application AMARE
[5] = BRSNN: oilseed-rape, canola (Brassica napus), read-out: Visual Growth Reduction (%) 14 Days After Application BRSNN
[6] = CHEAL: lambsquarters (Chenopodium album), read-out: Visual Growth Reduction (%) 14 Days After Application CHEAL
[7] = EPHHL: wild poinsettia (Euphorbia heterophylla), read-out: Visual Growth Reduction (%) 14 Days After Application EPHHL
[8] = HELAN: sunflower (Helianthus annuus), read-out: Visual Growth Reduction (%) 14 Days After Application HELAN
[9] = VIOTR: wild pansy (Viola tricolor), read-out: Visual Growth Reduction (%) 14 Days After Application VIOTR
[10] = Triticum aestivum, TRZSS (wheat), read-out: Visual Growth Reduction (%) 14 Days After Application, TRZSS
[11] = CYPES: yellow nutsedge (Cyperus esculentus), read-out: Visual Growth Reduction (%) 14 Days After Application, CYPES
[12] = DIGSA: crabgrass (Digitaria sanguinalis), read-out: Visual Growth Reduction (%) 14 Days After Application, DIGSA
[13] = ECHCG: barnyardgrass (Echinochloa crus-galli), read-out: Visual Growth Reduction (%) 14 Days After Application, ECHCG
[14] = ORYSA: rice (Oryza sativa), read-out: Visual Growth Reduction (%) 14 Days After Application, ORYSA
[15] = SETFA: giant foxtail (Setaria faberi), read-out: Visual Growth Reduction (%) 14 Days After Application, SETFA
[16] = SORVU: grain sorghum (Sorghum vulgare), read-out: Visual Growth Reduction (%) 14 Days After Application, SORVU
[17] = ZEAMX: maize, corn (Zea mays), read-out: Visual Growth Reduction (%) 14 Days After Application, ZEAMX

| SMILES | pest or weed control at 70 g/ha [1, 3] | pest or weed control at 140 g/ha [1, 3] | pest or weed control at 70 g/ha [1, 4] | pest or weed control at 140 g/ha [1, 4] | pest or weed control at 70 g/ha [1, 5] | pest or weed control at 140 g/ha [1, 5] | pest or weed control at 70 g/ha [1, 6] | pest or weed control at 140 g/ha [1, 6] | pest or weed control at 70 g/ha [1, 7] | pest or weed control at 140 g/ha [1, 7] | pest or weed control at 70 g/ha [1, 8] | pest or weed control at 140 g/ha [1, 8] | pest or weed control at 70 g/ha [1, 9] | pest or weed control at 140 g/ha [1, 9] | pest or weed control at 70 g/ha [2, 10] | pest or weed control at 140 g/ha [2, 10] | pest or weed control at 70 g/ha [2, 11] | pest or weed control at 140 g/ha [2, 11] | pest or weed control at 70 g/ha [2, 12] | pest or weed control at 140 g/ha [2, 12] | further results |
| --- | --- | --- | --- | --- | --- | --- | --- | --- | --- | --- | --- | --- | --- | --- | --- | --- | --- | --- | --- | --- | --- |
| C#Cc1ccc(-c2nc(C(=O)O)c(C=C)c(N)c2F)cc1 [Compound 36] | 0 to 29% | 0 to 29% | 95 to 100% | 95 to 100% | 0 to 29% | 0 to 29% | 85 to 94% | 85 to 94% | 95 to 100% | 95 to 100% | 85 to 94% | 85 to 94% | 0 to 29% | 0 to 29% | 45 to 59% | 45 to 59% | 0 to 29% | 95 to 100% | 0 to 29% | 0 to 29% | pest or weed control at 70 g/ha [2, 13]: 60 to 74%; pest or weed control at 140 g/ha [2, 13]: 75 to 84%; pest or weed control at 70 g/ha [2, 14]: 0 to 29%; pest or weed control at 140 g/ha [2, 14]: 0 to 29%; pest or weed control at 70 g/ha [2, 15]: 0 to 29%; pest or weed control at 140 g/ha [2, 15]: 0 to 29%; pest or weed control at 70 g/ha [2, 16]: 60 to 74%; pest or weed control at 140 g/ha [2, 16]: 60 to 74%; pest or weed control at 70 g/ha [2, 17]: 30 to 44%; pest or weed control at 140 g/ha [2, 17]: 45 to 59% |
| COc1c(N)nc(-c2ccc(I)c(F)c2)nc1C(=O)O [Compound 37, 6-Amino-2-(3-fluoro-4-iodophenyl)-5-methoxypyrimidine-4-carboxylic acid] | 45 to 59% | 60 to 74% | 85 to 94% | 85 to 94% | 95 to 100% | 95 to 100% | 95 to 100% | 95 to 100% | 95 to 100% | 95 to 100% | 85 to 94% | 85 to 94% | 95 to 100% | 95 to 100% | 45 to 59% | 60 to 74% | 0 to 29% | 0 to 29% | 45 to 59% | 60 to 74% | pest or weed control at 70 g/ha [2, 13]: 75 to 84%; pest or weed control at 140 g/ha [2, 13]: 75 to 84%; pest or weed control at 70 g/ha [2, 14]: 0 to 29%; pest or weed control at 140 g/ha [2, 14]: 0 to 29%; pest or weed control at 70 g/ha [2, 15]: 0 to 29%; pest or weed control at 140 g/ha [2, 15]: 60 to 74%; pest or weed control at 70 g/ha [2, 16]: 75 to 84%; pest or weed control at 140 g/ha [2, 16]: 85 to 94%; pest or weed control at 70 g/ha [2, 17]: 0 to 29%; pest or weed control at 140 g/ha [2, 17]: 45 to 59% |
